In patent US20170008921A1, “C-3 NOVEL TRITERPENONE WITH C-28 REVERSE AMIDE DERIVATIVES AS HIV INHIBITORS” (HETERO RESEARCH FOUNDATION, priority 2015, published 2017):
Like-named read-outs stand apart in the source and are kept apart here.

Legend:
[1] = Cyto-toxicity (MTT assay); type: cell-based
[2] = Single dose oral pharmacokinetic study; type: in vivo; settings: Mice oral PK @30 mg/kg, plasma, vehicle 10% Solutol+20% PEG
How it was run: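 Rats or mice dosed orally at 30 mg/kg in 10% Solutol+20% PEG. Acetonitrile precipitation, then LC-MS/MS quantification for PK parameters.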

HIV-1 strain 92HT599 = assay: Antiviral activity against HIV-1 strain 92HT599 in MT2 cells (p24 estimation); type: cell-based; settings: HIV-1 92HT599, ~96 hours
Protocol: MT2 cells were infected with HIV-1 strain 92HT599 (10 TCID 50/30000 cells). The infected cells were plated at the concentration of ˜30,000 cells per well in 96 well plate. Test compound was added to the micro plate in defined format with the final concentration of DMSO (vehicle) is not more than 1%. Incubation was carried out in CO2 incubator for ˜96 hours for viral infection. At the end of incubation period an aliquot from each well was taken for p24 estimation. The quantitation of p24 is an index for antiviral activity of the compound. Percent inhibition was calculated with reference to control values (vehicle controls). p24 estimation was carried out using Advance biosciences kit as per the procedure detailed by supplier.

pNL4-3 WT = assay: Antiviral activity against pNL4-3 WT strain in MT4 cells (p24 estimation); type: cell-based, HIV-1; settings: 4 days
Protocol: (§1) MT4 cells were Transfected with HIV-1 Plasmid (pNL4-3-WT & V7A) (Cells were incubating with required number of TCID50 of HIV-1 for 1.5 h at 37° C.). After infection, the infected cells were plated at the concentration of 3×10^4 cells per well in 96 well plate. Test compound was added to the test plate in defined format with the final concentration of DMSO is not more than 1%. Incubation was carried out in CO2 incubator for 4 days for viral infection. At the end of incubation period an aliquot from each well was taken for p24 estimation. p24 estimation was carried out using Advance biosciences kit as per the procedure detailed by supplier.

pNL4-3 V7A = assay: Antiviral activity against pNL4-3 V7A strain in MT4 cells (p24 estimation); type: cell-based, HIV-1; settings: 4 days
Protocol: as §1

cells = assay: Cyto-toxicity (MTT assay); type: cell-based
[3] = 0% serum binding assay, read-out: IC50 0% serum
[4] = 40% serum binding assay, read-out: IC50 40% serum

IC50 (HIV-1 strain 92HT599; [3]) [µM]	IC50 (HIV-1 strain 92HT599; [4]) [µM]	SMILES	viability at 4 days, 0.01 µM [1] [%]	viability at 4 days, 0.1 µM [1] [%]	viability at 4 days, 1 µM [1] [%]	AUC(0-t) ([2]; mouse, read-out: AUC0-t) [µg·h/mL]	Cmax ([2]; mouse, read-out: Cmax) [µg/mL]	also measured
		CCOC(=O)NC(C)(C)C(=O)N[C@@]12CC[C@]3(C)[C@H](CC[C@@H]4[C@@]5(C)CC[C@H](OC(=O)[C@H]6C[C@@H](C(=O)O)C6(C)C)C(C)(C)[C@@H]5CC[C@]43C)C1=C(C(C)C)C(=O)C2 [Example 64, (1R,3S)-3-((((3aR,5aR,5bR,7aR,9S,11aR,11bR,13aS)-3a-(2-((ethoxycarbonyl)amino)-2-methylpropanamido)-1-isopropyl-5a,5b. 8,8,11a-pentamethyl-2-oxo-3,3a,4,5,5a,5b,6,7,7a,8,9,10,11,11a,11b,12,13,13a-octadecahydro-2H-cyclopenta[a]chrysen-9-yl)oxy)carbonyl)-2,2-dimethylcyclobutane-1-carboxylic acid]	26	2	1	336	27.4	
		CC(C)C1=C2[C@H]3CC[C@@H]4[C@@]5(C)CC[C@H](OC(=O)[C@H]6C[C@@H](C(=O)O)C6(C)C)C(C)(C)[C@@H]5CC[C@@]4(C)[C@]3(C)CC[C@@]2(NC(=O)C(C)(C)NCc2ccccn2)CC1=O [Example 67, (1R,3S)-3-((((3aR,5aR,5bR,7aR,9S,11aR,11bR,13aS)-1-isopropyl-5a,5b,8,8,11a-pentamethyl-3a-(2-methyl-2-((pyridin-2-ylmethyl)amino)propan amido)-2-oxo-3,3a,4,5,5a,5b,6,7,7a,8,9,10,11,11a,11b,12,13,13a-octadecahydro-2H-cyclopenta[a]chrysen-9-yl)oxy)carbonyl)-2,2-dimethylcyclobutane-1-carboxylic acid]	59	21	3	86.6	24.3	
		Cc1ccc(NC(=O)NC(C)(C)C(=O)N[C@@]23CC[C@]4(C)[C@H](CC[C@@H]5[C@@]6(C)CC[C@H](OC(=O)[C@H]7C[C@@H](C(=O)O)C7(C)C)C(C)(C)[C@@H]6CC[C@]54C)C2=C(C(C)C)C(=O)C3)cn1 [Example 71, (1R,3S)-3-((((3aR,5aR,5bR,7aR,9S,11aR,11bR,13aS)-1-isopropyl-5a,5b,8,811a-pentamethyl-3a-(2-methyl-2-(3-(6-methylpyridin-3-yl)ureido)propanamido)-2-oxo-3,3a,4,5,5a,5b,6,7,7a,8,9,10,11,11a,11b,12,13,13a-octadecahydro-2H-cyclopenta[a]chrysen-9-yl)oxy)carbonyl)-2,2-dimethylcyclobutane-1-carboxylic acid]	41	5	3	130	19.3	
		Cc1cccc(NC(=O)NC(C)(C)C(=O)N[C@@]23CC[C@]4(C)[C@H](CC[C@@H]5[C@@]6(C)CC[C@H](OC(=O)[C@H]7C[C@@H](C(=O)O)C7(C)C)C(C)(C)[C@@H]6CC[C@]54C)C2=C(C(C)C)C(=O)C3)n1 [Example 72, (1R,3S)-3-((((3aR,5aR,5bR,7aR,9S,11aR,11bR,13aS)-1-isopropyl-5a,5b,8,8,11a-pentamethyl-3a-(2-methyl-2-(3-(6-methylpyridin-2-yl)ureido)propanamido)-2-oxo-3,3a,4,5,5a,5b,6,7,7a,8,9,10,11,11a,11b,12,13,13a-octadecahydro-2H-cyclopenta[a]chrysen-9-yl)oxy)carbonyl)-2,2-dimethylcyclobutane-1-carboxylic acid]	27			192	15.3	viability at 4 days, 0.001 µM [1]: 98%; viability at 4 days, 0.003 µM [1]: 84%
< 0.003	< 0.05	CC(C)C1=C2[C@H]3CC[C@@H]4[C@@]5(C)CC[C@H](OC(=O)[C@H]6C[C@@H](C(=O)O)C6(C)C)C(C)(C)[C@@H]5CC[C@@]4(C)[C@]3(C)CC[C@@]2(NC(=O)C(C)(C)N)CC1=O.Cl [Example 74, (1R,3S)-3-((((3aR,5aR,5bR,7aR,9S,11aR,11bR,13aS)-3a-(2-amino-2-methylpropanamido)-1-isopropyl-5a,5b,8,8,11a-pentamethyl-2-oxo-3,3a,4,5,5a,5b, 6,7,7a,8,9,10,1111a,11b,12,13,13a-octadecahydro-2H-cyclopenta[a]chrysen-9-yl)oxy)carbonyl)-2,2-dimethylcyclobutane-1-carboxylic acid hydrochloride]						Cytotoxicity % viability (cells; 0.01 µM): 61%; Cytotoxicity % viability (cells; 0.1 µM): 14%; Cytotoxicity % viability (cells; 1 µM): 19%
< 0.003	0.05 to 0.2	CC(C)C1=C2[C@H]3CC[C@@H]4[C@@]5(C)CC[C@H](OC(=O)[C@H]6C[C@@H](C(=O)O)C6(C)C)C(C)(C)[C@@H]5CC[C@@]4(C)[C@]3(C)CC[C@@]2(NC(=O)C(C)(C)NC(=O)[C@@H]2CCCN2)CC1=O.Cl [Example 76, (1R,3S)-3-((((3aR,5aR,5bR,7aR,9S,11aR,11bR,13aS)-1-isopropyl-5a,5b,8,8,11a-pentamethyl-3a-(2-methyl-2-((S)-pyrrolidine-2-carboxamido)propanamido)-2-oxo-3,3a,4,5,5a,5b,6,77a,8,9,10,11,11a,11b,12,13,13a-octadecahydro-2H-cyclopenta[a]chrysen-9-yl)oxy)carbonyl)-2,2-dimethylcyclobutane-1-carboxylic acid hydrochloride]						Cytotoxicity % viability (cells; 0.01 µM): 59%; Cytotoxicity % viability (cells; 0.1 µM): 6%; Cytotoxicity % viability (cells; 1 µM): 6%

SMILES	IC50 (HIV-1 strain 92HT599; [3]) [µM]	IC50 (HIV-1 strain 92HT599; [4]) [µM]	viability at 4 days, 0.01 µM [1] [%]	viability at 4 days, 0.1 µM [1] [%]	viability at 4 days, 1 µM [1] [%]	AUC(0-t) ([2]; mouse, read-out: AUC0-t) [µg·h/mL]	Cmax ([2]; mouse, read-out: Cmax) [µg/mL]	also measured
CC(C)C1=C2[C@H]3CC[C@@H]4[C@@]5(C)CC[C@H](OC(=O)[C@H]6C[C@@H](C(=O)O)C6(C)C)C(C)(C)[C@@H]5CC[C@@]4(C)[C@]3(C)CC[C@@]2(NC(=O)C(C)(C)NS(=O)(=O)c2ccc(Cl)cc2)CC1=O [Example 65, (1R,3S)-3-((((3aR,5aR,5bR,7aR,9S,11aR,11bR,13aS)-3a-(2-((4-chlorophenyl)sulfonamido)-2-methylpropanamido)-1-isopropyl-5a,5b,8,8,11a-pentamethyl-2-oxo-3,3a,4,5,5a,5b,6,7,7a,8,91,111,11a,11b,12,13,13a-octadecahydro-2H-cyclopenta[a]chrysen-9-yl)oxy)carbonyl)-2,2-dimethylcyclobutane-1-carboxylic acid]	< 0.003	< 0.05						IC50 (pNL4-3 WT): > 0.01 µM; IC50 (pNL4-3 V7A): > 0.05 µM; Cytotoxicity % viability (cells; 0.01 μM, MTT, 4 days (Table 3)): 27%; Cytotoxicity % viability (cells; 0.1 μM, MTT, 4 days (Table 3)): 3%; Cytotoxicity % viability (cells; 1 μM, MTT, 4 days (Table 3)): 2%; AUC(0-t) [2]: 145.21 µg·h/mL; Cmax [2]: 7.383 µg/mL
